Target: T1, bovine rod cGMP-gated channel alpha subunit (retinal CNG channel) (Bos taurus, UniProt Q00194)
T1 sequence (Q00194 1-690): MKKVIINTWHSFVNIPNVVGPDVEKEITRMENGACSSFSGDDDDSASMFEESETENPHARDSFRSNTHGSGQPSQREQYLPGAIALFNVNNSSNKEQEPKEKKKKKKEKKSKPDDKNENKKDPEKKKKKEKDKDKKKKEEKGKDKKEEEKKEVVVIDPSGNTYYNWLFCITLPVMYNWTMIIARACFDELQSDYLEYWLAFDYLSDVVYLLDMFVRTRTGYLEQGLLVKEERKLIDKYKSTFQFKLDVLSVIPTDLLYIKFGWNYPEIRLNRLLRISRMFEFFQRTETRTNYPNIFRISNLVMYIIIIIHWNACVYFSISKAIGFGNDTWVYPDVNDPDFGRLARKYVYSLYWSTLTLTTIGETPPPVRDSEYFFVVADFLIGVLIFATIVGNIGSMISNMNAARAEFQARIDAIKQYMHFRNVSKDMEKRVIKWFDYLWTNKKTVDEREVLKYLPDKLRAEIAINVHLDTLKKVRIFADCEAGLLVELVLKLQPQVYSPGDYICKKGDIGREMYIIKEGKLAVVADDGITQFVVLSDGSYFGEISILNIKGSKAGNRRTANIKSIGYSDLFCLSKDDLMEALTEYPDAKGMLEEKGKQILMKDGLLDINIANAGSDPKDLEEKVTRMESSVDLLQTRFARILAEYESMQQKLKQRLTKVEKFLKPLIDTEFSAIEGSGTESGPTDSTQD
Assay type: cell-based

Kd: 510 ± 40 nM
Structure (SMILES): NCCCNCCCCNCCCN [spermine]
